Source: patent US8889874B2, “Imidazolone-chalcone derivatives as potential anticancer agent and process for the preparation thereof” (Council of Scientific and Industrial Research, priority 2010, dated 2014)
Where two headings read alike, the source gives them in different places.

Columns and labels:
Assay type in all cases: cell-based, human
SK-MEL-5 (melanoma) = assay: NCI anticancer screen, SRB assay, 48 h; settings: Homo sapiens
In short: (§1)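 Compounds were tested across fifty three human cancer cell lines from nine tumour types. Each line got a dose-response curve of at least five concentrations at 10-fold dilutions, with continuous drug exposure and sulforhodamine B protein staining to estimate viability or growth.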

[1] = test system: A549/ATCC (non-small cell lung); assay: NCI anticancer screen, SRB assay, 48 h; settings: Homo sapiens
In short: as §1

SK-MEL-28 (melanoma) = assay: NCI anticancer screen, SRB assay, 48 h; settings: Homo sapiens
In short: as §1

SW-620 (colon) = assay: NCI anticancer screen, SRB assay, 48 h; settings: Homo sapiens
In short: as §1

SK-OV-3 (ovarian) = assay: NCI anticancer screen, SRB assay, 48 h; settings: Homo sapiens
In short: as §1

786-0 (renal) = assay: NCI anticancer screen, SRB assay, 48 h; settings: Homo sapiens
In short: as §1

MALME-3M (melanoma) = assay: NCI anticancer screen, SRB assay, 48 h; settings: Homo sapiens
In short: as §1

[2] = test system: K-562 (leukemia cell line); assay: NCI anticancer screen, SRB assay, 48 h; settings: Homo sapiens
In short: as §1

[3] = test system: NCI-H226 (non-small cell lung); assay: NCI anticancer screen, SRB assay, 48 h; settings: Homo sapiens
In short: as §1

ACHN (renal) = assay: NCI anticancer screen, SRB assay, 48 h; settings: Homo sapiens
In short: as §1

SN12C (renal) = assay: NCI anticancer screen, SRB assay, 48 h; settings: Homo sapiens, SN12C
In short: as §1

SNB-19 (CNS) = assay: NCI anticancer screen, SRB assay, 48 h; settings: Homo sapiens
In short: as §1

KM12 (colon) = assay: NCI anticancer screen, SRB assay, 48 h; settings: Homo sapiens
In short: as §1

CAKI-1 (renal) = assay: NCI anticancer screen, SRB assay, 48 h; settings: Homo sapiens
In short: as §1

OVCAR-8 (ovarian) = assay: NCI anticancer screen, SRB assay, 48 h; settings: Homo sapiens
In short: as §1

UACC-257 (melanoma) = assay: NCI anticancer screen, SRB assay, 48 h; settings: Homo sapiens
In short: as §1

SF-539 (CNS) = assay: NCI anticancer screen, SRB assay, 48 h; settings: Homo sapiens
In short: as §1

HS 578T (breast) = assay: NCI anticancer screen, SRB assay, 48 h; settings: Homo sapiens
In short: as §1

[4] = test system: HOP-92 (non-small cell lung); assay: NCI anticancer screen, SRB assay, 48 h; settings: Homo sapiens
In short: as §1

TD-47D (breast) = assay: NCI anticancer screen, SRB assay, 48 h; settings: Homo sapiens
In short: as §1

A498 (renal) = assay: NCI anticancer screen, SRB assay, 48 h; settings: Homo sapiens
In short: as §1

[5] = test system: NCI-H460 (non-small cell lung); assay: NCI anticancer screen, SRB assay, 48 h; settings: Homo sapiens
In short: as §1

[6] = test system: EKVX (non-small cell lung); assay: NCI anticancer screen, SRB assay, 48 h; settings: Homo sapiens
In short: as §1

[7] = test system: NCI-H23 (non-small cell lung); assay: NCI anticancer screen, SRB assay, 48 h; settings: Homo sapiens
In short: as §1

[8] = test system: Melanoma cancer cell lines; assay: NCI anticancer screen, SRB assay, panel summary; settings: for GI50: Homo sapiens
In short: as §1

[9] = test system: Prostate cancer cell lines; assay: NCI anticancer screen, SRB assay, panel summary
In short: as §1

Colon cancer cell lines = assay: NCI anticancer screen, SRB assay, panel summary; settings: for GI50: Homo sapiens
In short: as §1

[10] = test system: Leukemia cancer cell lines; assay: NCI anticancer screen, SRB assay, panel summary; settings: Homo sapiens
In short: as §1

[11] = test system: Ovarian cancer cell lines; assay: NCI anticancer screen, SRB assay, panel summary; settings: Homo sapiens
In short: as §1

Breast cancer cell lines = assay: NCI anticancer screen, SRB assay, panel summary; settings: Homo sapiens
In short: as §1

Renal cancer cell lines = assay: NCI anticancer screen, SRB assay, panel summary; settings: Homo sapiens
In short: as §1

CNS cancer cell lines = assay: NCI anticancer screen, SRB assay, panel summary; settings: for GI50: Homo sapiens
In short: as §1

[12] = test system: Non-small cell lung cancer cell lines; assay: NCI anticancer screen, SRB assay, panel summary; settings: Homo sapiens
In short: as §1

[13] = 48 h exposure, SRB, read-out: GI50
[14] = read-out: pGI50 (-log of molar concentration causing 50% inhibition of net cell growth) (converted)

`COc1cc(/C=C/C(=O)c2cccc(-n3cc(-c4ccccc4)[nH]c3=O)c2)ccc1O` [3a, 1-3-[(E)-3-(4-hydroxy-3-methoxyphenyl)-2-propenoyl]phenyl-4-phenyl-2,3-dihydro-1H-2-imidazolone] showed a GI50 (SK-MEL-5 (melanoma); [13]) of 1.59 µM, a GI50 (SK-MEL-5 (melanoma); [14]) of 1.58 µM and a GI50 [1, 13] of 3.85 µM. For the same compound, the GI50 [1, 14] was 3.89 µM, the GI50 (SK-MEL-28 (melanoma); [13]) was 1.85 µM and the GI50 (SK-MEL-28 (melanoma); [14]) was 1.86 µM. For the same compound, the GI50 (SW-620 (colon); [13]) was 2.29 µM, the GI50 (SW-620 (colon); [14]) was 2.29 µM and the GI50 (SK-OV-3 (ovarian); [13]) was 3.76 µM. It also gave a GI50 (SK-OV-3 (ovarian); [14]) of 3.8 µM, a GI50 (786-0 (renal); [13]) of 1.35 µM and a GI50 (786-0 (renal); [14]) of 1.35 µM. For the same compound, the GI50 (MALME-3M (melanoma); Malme-3M, read-out: pGI50 (-log of molar concentration causing 50% inhibition of net cell growth) (converted)) was 2.69 µM, the GI50 (MALME-3M (melanoma); MALME-3M, 48 h exposure, SRB, read-out: GI50) was 2.67 µM and the GI50 ([2]; K562, 48 h exposure, SRB, read-out: GI50) was 2.04 µM. It also gave a GI50 ([2]; K562, read-out: pGI50 (-log of molar concentration causing 50% inhibition of net cell growth) (converted)) of 2.04 µM, a GI50 [3, 13] of 2.6 µM and a GI50 [3, 14] of 2.57 µM. The GI50 (ACHN (renal); [13]) was 2.5 µM, the GI50 (ACHN (renal); [14]) was 2.51 µM and the GI50 (SN12C (renal); SN 12C, read-out: pGI50 (-log of molar concentration causing 50% inhibition of net cell growth) (converted)) was 3.31 µM. The GI50 (SN12C (renal); [13]) was 3.31 µM, the GI50 (SNB-19 (CNS); [13]) was 2.96 µM and the GI50 (SNB-19 (CNS); [14]) was 2.95 µM. For the same compound, the GI50 (KM12 (colon); [13]) was 1.61 µM, the GI50 (KM12 (colon); [14]) was 1.62 µM and the GI50 (CAKI-1 (renal); [13]) was 2.19 µM. For the same compound, the GI50 (CAKI-1 (renal); [14]) was 2.19 µM, the GI50 (OVCAR-8 (ovarian); [13]) was 4.11 µM and the GI50 (OVCAR-8 (ovarian); [14]) was 4.07 µM. For the same compound, the GI50 (UACC-257 (melanoma); [13]) was 6.81 µM, the GI50 (UACC-257 (melanoma); [14]) was 6.76 µM and the GI50 (SF-539 (CNS); [13]) was 1.91 µM. The GI50 (SF-539 (CNS); [14]) was 1.91 µM, the GI50 (HS 578T (breast); [13]) was 4.16 µM and the GI50 (HS 578T (breast); [14]) was 4.17 µM. It also gave a GI50 [4, 13] of 2.27 µM, a GI50 [4, 14] of 2.29 µM and a GI50 (TD-47D (breast); [13]) of 2.7 µM. The GI50 (TD-47D (breast); [14]) was 2.69 µM, the GI50 (A498 (renal); [13]) was 1.68 µM and the GI50 (A498 (renal); [14]) was 1.7 µM. For the same compound, the GI50 [5, 13] was 1.95 µM, the GI50 [5, 14] was 1.95 µM and the GI50 [6, 13] was 3.9 µM. For the same compound, the GI50 [6, 14] was 3.89 µM, the GI50 [7, 13] was 2.02 µM and the GI50 [7, 14] was 2.04 µM. For the same compound, the GI50 ([8]; Melanoma panel, log of concentration in mol/L causing 50% inhibition of net cell growth, read-out: mean graph midpoint (MG_MID) of Log10 GI50 (converted)) was 2.57 µM, the GI50 ([8]; nine melanoma cancer cell lines, exposure at least 48 hrs, read-out: GI50, range over the panel) was 1.59 to 6.81 µM and the “mean graph midpoint (MG_MID) of Log10 LC50” value ([8]; Melanoma panel, log of concentration leading to 50% net cell death) was 4.06. The GI50 ([9]; Homo sapiens, log of concentration in mol/L causing 50% inhibition of net cell growth, read-out: mean graph midpoint (MG_MID) of Log10 GI50 (converted)) was 2.51 µM, the LC50 ([9]; Homo sapiens, log of concentration leading to 50% net cell death, read-out: mean graph midpoint (MG_MID) of Log10 LC50 (converted)) was at least 100 µM and the “mean graph midpoint (MG_MID) of Log10 TGI” value ([9]; log of concentration resulting in total inhibition of net cell growth) was 5.13. For the same compound, the “mean graph midpoint (MG_MID) of Log10 LC50” value (Colon cancer cell lines; Colon panel, log of concentration leading to 50% net cell death) was 4.68, the GI50 (Colon cancer cell lines; Colon panel, log of concentration in mol/L causing 50% inhibition of net cell growth, read-out: mean graph midpoint (MG_MID) of Log10 GI50 (converted)) was 2.14 µM and the GI50 (Colon cancer cell lines; seven colon cancer cell lines, exposure at least 48 hrs, read-out: GI50, range over the panel) was 1.4 to 3.77 µM. For the same compound, the GI50 ([10]; Leukemia panel, log of concentration in mol/L causing 50% inhibition of net cell growth, read-out: mean graph midpoint (MG_MID) of Log10 GI50 (converted)) was 1.86 µM, the LC50 ([10]; Leukemia panel, log of concentration leading to 50% net cell death, read-out: mean graph midpoint (MG_MID) of Log10 LC50 (converted)) was 66.1 µM and the GI50 ([10]; two leukemia cancer cell lines (RPMI-8226 and K-562), exposure at least 48 hrs, read-out: GI50, range over the panel) was 1.67 to 2.04 µM. The GI50 ([11]; Ovarian panel, log of concentration in mol/L causing 50% inhibition of net cell growth, read-out: mean graph midpoint (MG_MID) of Log10 GI50 (converted)) was 3.24 µM, the LC50 ([11]; Ovarian panel, log of concentration leading to 50% net cell death, read-out: mean graph midpoint (MG_MID) of Log10 LC50 (converted)) was 11.7 µM and the GI50 ([11]; six ovarian cancer cell lines, exposure at least 48 hrs, read-out: GI50, range over the panel) was 2.04 to 5.19 µM. For the same compound, the GI50 (Breast cancer cell lines; Breast panel, log of concentration in mol/L causing 50% inhibition of net cell growth, read-out: mean graph midpoint (MG_MID) of Log10 GI50 (converted)) was 2.82 µM, the LC50 (Breast cancer cell lines; Breast panel, log of concentration leading to 50% net cell death, read-out: mean graph midpoint (MG_MID) of Log10 LC50 (converted)) was 53.7 µM and the GI50 (Breast cancer cell lines; five breast cancer cell lines, exposure at least 48 hrs, read-out: GI50, range over the panel) was 1.55 to 4.16 µM. For the same compound, the GI50 (Renal cancer cell lines; Renal panel, log of concentration in mol/L causing 50% inhibition of net cell growth, read-out: mean graph midpoint (MG_MID) of Log10 GI50 (converted)) was 2.4 µM, the LC50 (Renal cancer cell lines; Renal panel, log of concentration leading to 50% net cell death, read-out: mean graph midpoint (MG_MID) of Log10 LC50 (converted)) was 34.7 µM and the GI50 (Renal cancer cell lines; eight renal cancer cell lines, exposure at least 48 hrs, read-out: GI50, range over the panel) was 1.35 to 5.29 µM. For the same compound, the “mean graph midpoint (MG_MID) of Log10 LC50” value (CNS cancer cell lines; CNS panel, log of concentration leading to 50% net cell death) was 4.62, the GI50 (CNS cancer cell lines; CNS panel, log of concentration in mol/L causing 50% inhibition of net cell growth, read-out: mean graph midpoint (MG_MID) of Log10 GI50 (converted)) was 2.57 µM and the GI50 (CNS cancer cell lines; six CNS cancer cell lines, exposure at least 48 hrs, read-out: GI50, range over the panel) was 1.91 to 3.9 µM. The GI50 ([12]; Non-small cell lung panel, log of concentration in mol/L causing 50% inhibition of net cell growth, read-out: mean graph midpoint (MG_MID) of Log10 GI50 (converted)) was 2.57 µM, the LC50 ([12]; Non-small cell lung panel, log of concentration leading to 50% net cell death, read-out: mean graph midpoint (MG_MID) of Log10 LC50 (converted)) was 41.7 µM and the GI50 ([12]; nine non-small cell lung cancer cell lines, exposure at least 48 hrs, read-out: GI50, range over the panel) was 1.48 to 3.9 µM.
